# Test results taken from patent US20260207575A1, “P[…] THE TREATMENT OF JUVENILE HUNTINGTON DISEASE” (Prilenia Neurotherapeutics Ltd., priority 2022, published 2026).
# Where two headings read alike, the source gives them in different places.
# How the values were obtained:
# [1] = test system: HD patients with CAG repeat length >=50; settings: 45 mg bid; up to 78 weeks; CAG >=50
# Protocol: (§1) All patients began treatment with a 2-week titration period (45 mg once a day) followed by full-dose treatment for 63-78 weeks.
# (§2) Efficacy was evaluated using the following clinical endpoints: Change from Baseline to Week 78 in composite UHDRS (cUHDRS) total score, Total Functional Capacity (UHDRS-TFC) score and Stroop Word Reading (SWR) testing for cognitive assessment.
# [2] = test system: HD patients with CAG repeat length >=50; settings: for cUHDRS LS Mean change vs placebo: 45 mg bid (n=1) vs placebo (n=4); for cUHDRS LS Mean change from baseline: n=1
# Protocol: as §1, §2
# The composite Unified Huntington's Disease Rating Scale (cUHDRS) is a clinical scale used for evaluating the severity and progression of Huntington's disease (HD).
# The cUHDRS is a composite scale assessing overall progression of independent key aspects of HD: functional ability, motor symptoms, and cognitive function. cUHDRS comprises four subscales: Total Functional Capacity (TFC), Total Motor Score (TMS), and 2 cognitive measures: the Symbol-Digit Modality Test (SDMT), and Stroop Word Reading (SWR) Test.
# The cUHDRS score is a validated scale used for tracking disease progression and evaluating treatment effectiveness in subjects with HD. Higher scores on cUHDRS indicates better overall disease state. By measuring multiple domains, the cUHDRS provides a global and comprehensive assessment of the disease stage.
# [3] = test system: HD patients with CAG repeat length >=50; settings: for TFC LS Mean change vs placebo: 45 mg bid (n=1) vs placebo (n=4); for TFC LS Mean change from baseline: n=1
# Protocol: as §1, §2
# The UHDRS-TFC score is a commonly used and regulatory-accepted clinical scale used for assessing the functional capacity of subjects with HD and monitoring the disease's progression and severity over time. This score ranges from 0 to 13 and higher scores indicate better functional capacity. A score of 13 means that the individual is entirely functional with no indications of impairment, while a score of 0 indicates complete dependence on others for daily activities.
# dopamine D2/D3 receptors = settings: low-affinity binding; cited from earlier work
# [4] = 45 mg bid, up to 78 weeks, CAG >=50
# [5] = Week 26, 45 mg bid, CAG >=50, positive change = improvement
structure (smiles),measurement,setting,value
"CCCN1CCC(c2cccc(S(C)(=O)=O)c2)CC1 [Pridopidine, 4-[3-(methylsulfonyl)phenyl]-1-propyl-piperidine]",effect on SWR / cognitive function compared to placebo (in words),[1],marked improvement
same,effect on cUHDRS / disease progression compared to placebo (in words),[2]; [4],marked improvement
same,cUHDRS LS Mean change vs placebo,[2]; Week 26,2.52 points
same,cUHDRS LS Mean change from baseline,[2]; [5],1.79
same,cUHDRS LS Mean change vs placebo,[2]; Week 39,2.66 points
same,cUHDRS LS Mean change from baseline,"[2]; Week 39, 45 mg bid, CAG >=50",1.83
same,cUHDRS LS Mean change vs placebo,[2]; Week 52,2.49 points
same,cUHDRS LS Mean change from baseline,"[2]; Week 52, 45 mg bid, CAG >=50",1.67
same,cUHDRS LS Mean change vs placebo,[2]; Week 65,2.32 points
same,cUHDRS LS Mean change from baseline,"[2]; Week 65, 45 mg bid, CAG >=50",1.41
same,cUHDRS LS Mean change vs placebo,[2]; Week 78,2.52 points
same,cUHDRS LS Mean change from baseline,"[2]; Week 78, 45 mg bid, CAG >=50",1.42
same,effect on TFC / functional capacity compared to placebo (in words),[3]; [4],marked improvement
same,TFC LS Mean change vs placebo,[3]; Week 26,2.99 points
same,TFC LS Mean change from baseline,[3]; [5],2.96
same,TFC LS Mean change vs placebo,[3]; Week 39,3.06 points
same,TFC LS Mean change from baseline,"[3]; Week 39, 45 mg bid, CAG >=50",2.96
same,TFC LS Mean change vs placebo,[3]; Week 52,3.00 points
same,TFC LS Mean change from baseline,"[3]; Week 52, 45 mg bid, CAG >=50",2.91
same,TFC LS Mean change vs placebo,[3]; Week 65,2.90 points
same,TFC LS Mean change from baseline,"[3]; Week 65, 45 mg bid, CAG >=50",2.61
same,TFC LS Mean change vs placebo,[3]; Week 78,3.45 points
same,TFC LS Mean change from baseline,"[3]; Week 78, 45 mg bid, CAG >=50",2.93
same,binding affinity to dopamine D2/D3 receptors,dopamine D2/D3 receptors,in the micromolar range
